From patent US7687546B2, “Quaternary ammonium compound, process for producing the same, therapeutic agent for cerebrovascular disorder, and therapeutic agent for heart disease” (Activus Pharma Co., Ltd., priority 2004, dated 2010)
Read-outs that look alike come from different tables or passages of the source.

Tests used:
[1] = system: middle cerebral artery occlusion and reperfusion model; experiment: Cerebral infarction model: middle cerebral artery occlusion and reperfusion (infarct area, neurological symptoms, motor function); format: in vivo, rats (Crj: Wistar strain); parameters: Improvement of neurological symptoms* (total score): scale not given here; details: rats, average of 10 animals; for Improvement of neurological symptoms* (total score) / Improvement of motor function (time stayed on rotor rod: seconds): single i.v. dose 3 mg/kg; for Improvement of neurological symptoms* (total score): 24 hours after occlusion, total score per Table 4, smaller = greater effect; for Improvement of motor function (time stayed on rotor rod: seconds): rotor rod 14 rotations per minute, maximum 1 minute; for Cerebral infarction reduction rate (%): single intravenous dose 3 mg/kg immediately before reperfusion, vs physiological saline group, bigger = greater effect
Procedure: In this example, a cerebral infarction model was prepared using rats in which reperfusion injury was induced by ischemia and then reperfusion of the middle cerebral artery using the obturator method. The efficacy of compounds of the present invention following single-dose intravenous administration at dose of 3 mg/kg was evaluated in terms of infarct area, neurological symptoms and motor function.
In addition, Edaravone (trade name, Mitsubishi Pharma Corporation) was used as a reference compound. The compounds of the present invention were stored in a refrigerator under protection from light, while Edaravone (trade name) was stored at room temperature under protection from light.
Compounds of present invention: 2 mL of physiological saline was added directly to tube containing 3 mg aliquots of a compound of the present invention to dissolve and prepare solutions having a concentration of 3 mg/2 mL. These samples were prepared at the time of use.
Edaravone: Since Edaravone is an injectable solution having a concentration of 30 mg/20 mL, the required amounts were divided up and used.
Rats: Crj: Wistar strain, males, age 7 weeks (Charles River Laboratories Japan, Inc.)
The test compounds were administered in a single dose into the tail vein using a 1 mL syringe and 27 G injection needle immediately before the reperfusion.
The rats were anesthetized by intraperitoneal administration of sodium pentobarbital at dose of 40 mg/kg (Nembutal (trade name), Dainippon Pharmaceutical Co., Ltd.), and a middle cerebral artery occlusion and reperfusion model was prepared in accordance with the method of Koizumi et al. (Non-Patent Document 2). Namely, the animals were warmed to 37° C. and held in the dorsal position while breathing spontaneously. A midline cervical incision was made, and then the right external carotid artery and right internal carotid artery were separated without damaging the vagus nerve. The right common carotid artery and right external carotid artery were ligated, and a suture was attached to the origin of the internal carotid artery in preparation for ligation and maintenance of occlusion following insertion of an obturator into the internal carotid artery. Moreover, a small incision was made in the right common carotid artery, an obturator provided with an approximately 17 mm silicon-coated suture was inserted into the internal carotid artery, and the internal carotid artery was ligated. Two hours after ligation, the obturator was removed under unanesthesia to reperfuse. Furthermore, flexion of the contralateral forelimb was confirmed 30 minutes after occlusion of the middle cerebral artery.
The following neurological symptoms were evaluated 24 hours after occlusion of the middle cerebral artery according to the evaluation method of Petullo et al. (Non-Patent Document 3). Neurological symptoms consisted of flexion of the forelimbs, torso twisting, resistance when pushing on the back of the right or left shoulder (Lateral push), circling, return of the hindlimb to the floor when lifted from the floor (Hindlimb placement), behavior when the head is faced downward on an angle (Inverted angle board) and a locomotor activity test.
Flexion of the forelimbs: flexion of the forelimbs was observed when the animals were lifted up by the tail.
Torso twisting: Torso twisting was observed when the animals were lifted up by the tail.
Lateral push: Resistance was observed when pushing on the back of the right or left shoulder.
Hindlimb placement: The animals were observed as to whether or not the hindlimb immediately returns to the floor after being lifted from the floor when placed on a horizontal floor.
locomotor activity: locomotor activity was observed when the animals were placed in a polycarbonate cage.
The aforementioned tests were scored based on the criteria described in the following documents, followed by calculation of total scores (see Table 4 “Neurological Symptom Evaluation Criteria and Scores”). […]

guinea pigs [2] = experiment: Study of arrhythmia-inducing action in guinea pigs (without ouabain); details: no ouabain
[3] = system: model of myocardial ischemia reperfusion injury; experiment: Model of myocardial ischemia-reperfusion injury in dogs; format: in vivo; details: 3 mg/kg into the femoral vein 10 minutes before 20 minutes coronary occlusion, then reperfusion
Procedure: In order to confirm the efficacy of compounds of the present invention on myocardial infarction and arrhythmia caused by myocardial infarction, a pharmacological study was conducted using a model of myocardial ischemia reperfusion injury in dogs for the compounds used in Example 1.
Dogs having body weights of approximately 10 kg were anesthetized with pentobarbital (trade name) (30 mg/ml/kg) followed by shaving the surgical site after starting artificial respiration. The femoral vein and femoral artery were separated followed by cannulation. The femoral vein was used as the administration route for the test substances, while the femoral artery was used to measure blood pressure.
Next, after opening the left chest, making an incision in the pericardium and exposing the left ventricle, the left coronary artery was separated. A silk suture was passed through the coronary artery to occlude, followed by the attachment of an electromagnetic flow meter probe for measuring blood flow.
In addition, a pair of ultrasound crystal probes was fixed in position to measure changes in ventricular wall length as a indicator of myocardial contractile force, and indwelling needle was installed for measuring left intraventricular pressure. Compounds of the present invention were administered into the femoral vein at 3 mg/kg (15% physiological saline solution) followed 10 minutes later by occluding the coronary artery for 20 minutes, and subsequently reperfusing the coronary artery. Myocardial contraction following ischemia-reperfusion was compared for each group based on a value of 100 for myocardial contraction prior to ischemic reperfusion. In addition, comparisons were also made with a solvent control group administered only physiological saline.

[4] = system: model of myocardial ischemia-reperfusion injury; experiment: Model of myocardial ischemia-reperfusion injury in rats; format: in vivo; details: 3 mg/kg i.v. 5 minutes before 5 minutes coronary ligation, 8 rats per group; for Incidence of Ventricular Fibrillation (%) / Incidence of Ventricular Tachycardia (%): monitored 5 minutes after reperfusion; for Mortality Rate (%): then reperfusion
[5] = system: ouabain-induced arrhythmia model; experiment: Ouabain-induced arrhythmia model in guinea pigs; format: in vivo, guinea pigs (Hartley strain); details: dose 3 mg/kg i.v. immediately before ouabain infusion 3 μg/0.1 ml/min
From the text: After guinea pigs (Hartley strain, age 6 weeks) were anesthetized with urethane, induction electrodes were attached to the hind limbs and fore limbs, and standard 2-lead electrocardiograms were monitored with an animal electrocardiogram analysis system (ECG-01, Japan Energy). After confirming that the waveforms of the electrocardiogram and heart rate were within the normal range, an incision was made in the epidermis of the neck followed by inserting a breathing tube into the trachea and cannulating a polyethylene tube into the left external jugular vein and left common carotid artery.
Immediately after administering a compound of the present invention dissolved in a physiological saline solution into the right external jugular vein, ouabain was continuously infused at 3 μg/0.1 ml/min through the cannulated polyethylene tube into the left external jugular vein using a syringe pump (Atom Syringe Pump 1235 (trade name), Atom Medical Corporation).
In addition, the polyethylene tube cannulated in the left common carotid artery was connected to a pressure transducer (P23XL, Gould Electronics), and fed to a pressure processor signal conditioner (TA-11, Gould Electronics) to record blood pressure and heart rate on a thermal plate recorder.
The results were assessed by comparing the dose (μg/kg) of ouabain administered until the appearance of arrhythmia and occurrence of cardiac arrest (arrhythmia is not induced even if a large dose of ouabain is administered if antiarrhythmic effects are high). Furthermore, a solvent dose group (administered only physiological saline in an amount equal to that of the test drug groups), and a positive control group administered a typical antiarrhythmic disopyramide phosphate (physiological saline solution), were also provided.

guinea pigs [6] = details: guinea pig, in vivo
[7] = dose 3 mg/kg, up to 1 hour after administration
[8] = dose 10 mg/kg, up to 1 hour after administration
[9] = dose 3.9 mg/kg, up to 1 hour after administration

SMILES	Improvement of neurological symptoms* (total score) [1]	Improvement of motor function (time stayed on rotor rod: seconds) [1]	Cerebral infarction reduction rate (%) [1]	Myocardial Contraction (%) (Based on a value of 100% for prior to ischemia-reperfusion) [3]	Incidence of Ventricular Fibrillation (%) [4]	Incidence of Ventricular Tachycardia (%) [4]	Mortality Rate (%) [4]	Ouabain (μg/kg) administered until Cardiac arrest [5]	Ouabain (μg/kg) administered until appearance of Arrhythmia [5]	Occurrence of Arrhythmia (guinea pigs [6]; 3 mg/kg)	Occurrence of cardiac arrest (guinea pigs [6]; 3 mg/kg)	Occurrence of Arrhythmia (guinea pigs [6]; 10 mg/kg)	Occurrence of cardiac arrest (guinea pigs [6]; 10 mg/kg)	other results
C[N+](C)(C)CCOc1ccc(C(=O)[O-])cc1 [Compound 3, 4-(2-trimethylammonio-ethoxy)-benzoate]	6.20	50.1 s	48.7%	81%	12.5%	62.5%	0%	235 µg/kg	169 µg/kg					Occurrence of Arrhythmia (guinea pigs [2]; [7]): No; Occurrence of cardiac arrest (guinea pigs [2]; [7]): No; Occurrence of Arrhythmia (guinea pigs [2]; [8]): No; Occurrence of cardiac arrest (guinea pigs [2]; [8]): No
C[N+](C)(C)CC(O)Oc1ccc(O)c(C(=O)[O-])c1 (stereo not drawn) [Compound 56]	6.55	45.4 s	40.7%	71%	12.5%	62.5%	25.0%	244 µg/kg	172 µg/kg	No	No	No	No	
C[N+](C)(C)CCOc1ccc(S(=O)(=O)[O-])cc1 [Compound 60]	6.65	44.2 s	39.0%	88%	25.0%	62.5%	0%	243 µg/kg	170 µg/kg	No	No	No	No	
C[N+](C)(C)CCOc1ccc(O)c(S(=O)(=O)[O-])c1 [Compound 66]	6.35	49.6 s	47.9%	80%	12.5%	62.5%	12.5%	237 µg/kg	168 µg/kg	No	No	No	No	
CC[N+](CC)(CC)CCOc1ccc(S(=O)(=O)[O-])c(O)c1 [Compound 71]	6.30	48.8 s	46.3%	72%	12.5%	62.5%	0%	239 µg/kg	171 µg/kg	No	No	No	No	
C[N+](C)(C)CCCOc1cc(S(=O)(=O)[O-])ccc1O [Compound 77]	6.40	49.3 s	47.3%	75%	12.5%	75.0%	12.5%	227 µg/kg	167 µg/kg	No	No	No	No	
CC(C)N(CCC(C(N)=O)(c1ccccc1)c1ccccn1)C(C)C (stereo not drawn) [Disopyramide phosphate, disopyramide phosphate, reference compound]								247 µg/kg	175 µg/kg					Occurrence of Arrhythmia (guinea pigs [2]; [9]): No; Occurrence of cardiac arrest (guinea pigs [2]; [9]): No; Occurrence of cardiac arrest (guinea pigs [2]; dose 12.9 mg/kg (10 mg/kg as disopyramide)): Yes; Occurrence of cardiac arrest (guinea pigs [2]; dose 12.9 mg/kg (10 mg/kg as disopyramide), listed as disopyramide phosphate): cardiac arrest occurred immediately after administration
